In patent US12091425B2 (AMGEN INC., priority 2016, dated 2024) one finds IC50 data, which are given here for 22 molecules.

SMILES strings stand for the structures.

T1 sequence (Q07820 171-327): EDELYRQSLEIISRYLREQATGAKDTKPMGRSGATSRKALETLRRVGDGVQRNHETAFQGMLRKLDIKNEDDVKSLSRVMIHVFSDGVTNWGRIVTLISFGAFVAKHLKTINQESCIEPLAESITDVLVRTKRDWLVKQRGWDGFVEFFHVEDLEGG

The first experiment concerns the target T1, Mcl-1/Bim interaction, recombinant human Mcl-1 (171-327) (Homo sapiens, UniProt Q07820).
T1 construct: made in house
The experiment is described as follows: Cell free Mcl-1: Bim Affinity Assay (Mcl-1 HTRF). The experiment is classed as binding. Conditions: TR-FRET, 0.1 nM Mcl-1 (171-327), 0.05 nM biotin-Bim (51-76). An outline of the steps: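 TR-FRET competition assay with biotinylated human Bim peptide (residues 51-76); reaction plates incubated overnight before reading. IC50 values came from duplicate data fitted to a four-parameter sigmoidal competition curve.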
Background: TR-FRET usually uses a lanthanide donor and a delayed reading to cut background.
In the case of `CS(=O)(=O)CCO[C@@H]1CCCCCS(=O)(=O)NC(=O)c2ccc3c(c2)N(C[C@@H]2CC[C@H]21)C[C@@]1(CCCc2cc(Cl)ccc21)CO3` [Example 1096, (1S,3′R,6′R,7′R)-6-chloro-7′-(2-(methylsulfonyl)ethoxy)-3,4-dihydro-2H,15′H-spiro [naphthalene-1,22′-[20]oxa[13]thia[1,14]diazatetracyclo[14.7.2.0^3,6.0^19,24]pentacosa [16,18,24]trien]-15′-one 13′,13′-dioxide], the half-inhibitory concentration (IC50) – broadly, the concentration that gives 50% inhibition – turned out to be 3.48 nM. With `CNC(=O)CO[C@H]1/C=C/CC[C@@H](C)S(=O)(=O)NC(=O)c2ccc3c(c2)N(C[C@@H]2CC[C@H]21)C[C@@]1(CCCc2cc(Cl)ccc21)CO3` [Example 404, 2-(((1S,3′R,6′R,7′S,8′E,12′R)-6-chloro-12′-methyl-13′,13′-dioxido-15′-oxo-3,4-dihydro-2H-spiro[naphthalene-1,22′-[20]oxa[13]thia[1,14]diazatetracyclo[14.7.2.0^3,6.0^19,24]pentacosa [8,16,18,24]tetraen]-7′-yl)oxy)-N-methylacetamide], the IC50 was 0.442 nM. Regarding `CCOC[C@H]1CC/C=C/[C@H](O)[C@@H]2CC[C@H]2CN2C[C@@]3(CCCc4cc(Cl)ccc43)COc3ccc(cc32)C(=O)NS1(=O)=O` (single isomer, unassigned) [Example 440], the IC50 came out at 2.44 nM. Still for that read-out and setting: with `N#C[C@@H]1CC/C=C\[C@H](O)[C@@H]2CC[C@H]2CN2C[C@@]3(CCCc4cc(Cl)ccc43)COc3ccc(cc32)C(=O)NS1(=O)=O` (single isomer, unassigned) [Example 153] the figure was 1.22 nM.

In the case of `CC[C@@H]1CC/C=C/[C@H](OCCC2OCCO2)[C@@H]2CC[C@H]2CN2C[C@@]3(CCCc4cc(Cl)ccc43)COc3ccc(cc32)C(=O)NS1(=O)=O` [Example 968, (1S,3′R,6′R,7′S,8′E,12′R)-6-chloro-7′-(2-(1,3-dioxolan-2-yl)ethoxy)-12′-ethyl-3,4-dihydro-2H,15′H-spiro[naphthalene-1,22′-[20]oxa[13]thia[1,14]diazatetracyclo[14.7.2.0^3,6.0^19,24]pentacosa [8,16,18,24]tetraen]-15′-one 13′,13′-dioxide], the concentration for half-maximal inhibition (IC50) came out at 1.9 nM.

Consider `O=C1NS(=O)(=O)[C@@H](CO)CC/C=C\C[C@@H]2CC[C@H]2CN2C[C@@]3(CCCc4cc(Cl)ccc43)COc3ccc1cc32` (single isomer, unassigned) [Example 451], for which the IC50 was 11.5 nM. As to `CO[C@@H]1CCCCCCS(=O)(=O)NC(=O)c2ccc3c(c2)N(C[C@@H]2CC[C@H]21)C[C@@]1(CCCc2cc(Cl)ccc21)CO3` [Example 230, (1S,3′R,6′R,7′R)-6-chloro-7′-methoxy-3,4-dihydro-2H,16′H-spiro[naphthalene-1,23′-[21]oxa[14]thia[1,15]diazatetracyclo[15.7.2.0^3,6.0^20,25]hexacosa[17,19,25]trien]-16′-one 14′,14′-dioxide], the IC50 was determined as 32.3 nM.

As to `CC[C@@H]1CC/C=C/[C@H](OCC(=O)N2CCS(=O)(=O)CC2)[C@@H]2CC[C@H]2CN2C[C@@]3(CCCc4cc(Cl)ccc43)COc3ccc(cc32)C(=O)NS1(=O)=O` [Example 999, (1S,3′R,6′R,7′S,8′E,12′R)-6-chloro-7′-(2-(1,1-dioxido-4-thiomorpholinyl)-2-oxoethoxy)-12′-ethyl-3,4-dihydro-2H,15′H-spiro[naphthalene-1,22′-[20]oxa[13]thia[1,14]diazatetracyclo[14.7.2.0^3,6.0^19,24]pentacosa [8,16,18,24]tetraen]-15′-one 13′,13′-dioxide], the IC50 worked out at 0.373 nM. Same read-out and setting: with `O=C1CCCS(=O)(=O)NC(=O)c2ccc3c(c2)N(C[C@@H]2CC[C@H]2CN1)C[C@@]1(CCCc2cc(Cl)ccc21)CO3` [Example 370, (1S,3′R,6′R)-6-chloro-3,4-dihydro-2H,9′H,15′H-spiro[naphthalene-1,22′-[20]oxa[13]thia[1,8,14]triazatetracyclo[14.7.2.0^3,6.0^19,24]pentacosa[16,18,24]triene]-9′,15′-dione 13′,13′-dioxide] the figure was 4.5 nM.

Staying with this experiment, now noted: cell free Mcl-1:Bim TR-FRET, recombinant human Mcl-1 (171-327).
Consider `O=C1NS(=O)(=O)CCC[C@@H](O)CC[C@@H]2CC[C@H]2CN2C[C@@]3(CCCc4cc(Cl)ccc43)COc3ccc1cc32` (single isomer, unassigned) [Example 503, (1S,3′R,6′S,9′S)-6-chloro-9′-hydroxy-3,4-dihydro-2H,15′H-spiro[naphthalene-1,22′-[20]oxa[13]thia[1,14]diazatetracyclo[14.7.2.0^3,6.0^19,24]pentacosa [16,18,24]trien]-15′-one 13′,13′-dioxide or (1S,3′R,6′S,9′R)-6-chloro-9′-hydroxy-3,4-dihydro-2H,15′H-spiro[naphthalene-1,22′-[20]oxa[13]thia[1,14]diazatetracyclo[14.7.2.0^3,6.0^19,24]pentacosa [16,18,24]trien]-15′-one 13′,13′-dioxide], for which the IC50 came to 3.96 nM. `C[C@@H]1C[C@@H]2C[C@@H](O1)[C@@H]1CC[C@H]1CN1C[C@@]3(CCCc4cc(Cl)ccc43)COc3ccc(cc31)C(=O)NS(=O)(=O)CCO2` (single isomer, unassigned) [Example 876]: the IC50 worked out at 18.3 nM.

Regarding `C[C@@H]1CCC2=NO[C@H](C2)[C@@H]2CC[C@H]2CN2C[C@@]3(CCCc4cc(Cl)ccc43)COc3ccc(cc32)C(=O)NS1(=O)=O` (single isomer, unassigned) [Example 609], the half-maximal inhibitory concentration (IC50) was determined as 3.84 nM. On the same count and under the same terms, with `CC(=O)N1CC[C@H](O)[C@@H]2CC[C@H]2CN2C[C@@]3(CCCc4cc(Cl)ccc43)COc3ccc(cc32)C(=O)NS(=O)(=O)CC1` (single isomer, unassigned) [Example 778] the figure was 6.89 nM; with `CC(C)(O)[C@@H]1CC/C=C/[C@H](O)[C@@H]2CC[C@H]2CN2C[C@@]3(CCCc4cc(Cl)ccc43)COc3ccc(cc32)C(=O)NS1(=O)=O` (single isomer, unassigned) [Example 697], 0.746 nM; with `O=C1NS(=O)(=O)CCCCC(O)C(O)C2CCC2CN2CC3(CCCc4cc(Cl)ccc43)COc3ccc1cc32` (single isomer, unassigned) [Example 857, (1S,3′R,6′R,7′R,8′R)-6-chloro-7′,8′-dihydroxy-3,4-dihydro-2H,15′H-spiro[naphthalene-1,22′-[20]oxa[13]thia[1,14]diazatetracyclo[14.7.2.0^3,6.0^19,24]pentacosa [16,18,24]trien]-15′-one 13′,13′-dioxide or (1S,3′R,6′R,7′S,8′S)-6-chloro-7′,8′-dihydroxy-3,4-dihydro-2H,15′H-spiro[naphthalene-1,22′-[20]oxa[13]thia[1,14]diazatetracyclo[14.7.2.0^3,6.0^19,24]pentacosa [16,18,24]trien]-15′-one 13′,13′-dioxide], 8.46 nM. On the same count and under the same terms, with `O=C1NS(=O)(=O)CCOC[C@@H](O)C[C@H]2CC[C@H]2CN2C[C@@]3(CCCc4cc(Cl)ccc43)COc3ccc1cc32` (single isomer, unassigned) [Example 780, (3R,6R,8S,22S)-6′-chloro-8-hydroxy-3′,4′-dihydro-2′H,15H-spiro[10,20-dioxa-13-thia-1,14-diazatetracyclo[14.7.2.0^3,6.0^19,24]pentacosa-16,18,24-triene-22, 1′-naphthalen]-15-one-13, 13-dioxide or (3R,6R,8R,22S)-6′-chloro-8-hydroxy-3′,4′-dihydro-2′H,15H-spiro[10,20-dioxa-13-thia-1,14-diazatetracyclo[14.7.2.0^3,6.0^19,24]pentacosa-16,18,24-triene-22, 1′-naphthalen]-15-one-13, 13-dioxide] the figure was 4.84 nM; with `O=C1NS(=O)(=O)C/C=C\C[C@@H](O)C[C@@H]2CC[C@H]2CN2C[C@@]3(CCCc4cc(Cl)ccc43)COc3ccc1cc32` (single isomer, unassigned) [Example 914], 1.87 nM; with `CC[C@@H]1CC/C=C/[C@H](OC2COC2)[C@@H]2CC[C@H]2CN2C[C@@]3(CCCc4cc(Cl)ccc43)COc3ccc(cc32)C(=O)NS1(=O)=O` [Example 783, (1S,3′R,6′R,7′S,8′E,12′R)-6-chloro-12′-ethyl-7′-(3-oxetanyloxy)-3,4-dihydro-2H,15′H-spiro[naphthalene-1,22′-[20]oxa[13]thia[1,14]diazatetracyclo [14.7.2.0^3,6.0^19,24]pentacosa[8,16,18,24]tetraen]-15′-one 13′,13′-dioxide], 1.04 nM. The same measure, in the same setting: for `C[C@H](O)C[C@H]1CC/C=C/[C@H](O)[C@@H]2CC[C@H]2CN2C[C@@]3(CCCc4cc(Cl)ccc43)COc3ccc(cc32)C(=O)NS1(=O)=O` (single isomer, unassigned) [Example 551] the value was 3.43 nM. Consider `O=C1NS(=O)(=O)CCOC/C=C/C2CCC2CN2C[C@@]3(CCCc4cc(Cl)ccc43)COc3ccc1cc32` (stereo in doubt) [Example 826, (3S,6R,7E,22S)-6′-chloro-3′,4′-dihydro-2′H,15H-spiro[10,20-dioxa-13-thia-1,14-diazatetracyclo[14.7.2.0^3,6.0^19,24]pentacosa-7,16,18,24-tetraene-22,1′-naphthalen]-15-one 13,13-dioxide], for which the IC50 was determined as 10.5 nM. For the molecule `O=C1C[C@H](O)[C@@H]2CC[C@H]2CN2C[C@@]3(CCCc4cc(Cl)ccc43)COc3ccc(cc32)C(=O)NS(=O)(=O)CCN1` (single isomer, unassigned) [Example 681], the IC50 was determined as 29 nM. Same read-out and setting: with `CN[C@H]1CCCCCS(=O)(=O)NC(=O)c2ccc3c(c2)N(C[C@@H]2CC[C@H]21)C[C@@]1(CCCc2cc(Cl)ccc21)CO3` (single isomer, unassigned) [Example 927, (1S,3′R,6′R,7′S)-6-chloro-7′-(methylamino)-3,4-dihydro-2H,15′H-spiro[naphthalene-1,22′-[20]oxa[13]thia[1,14]diazatetracyclo[14.7.2.0^3,6.0^19,24]pentacosa [16,18,24]trien]-15′-one 13′,13′-dioxide or (1S,3′R,6′R,7′R)-6-chloro-7′-(methylamino)-3,4-dihydro-2H,15′H-spiro[naphthalene-1,22′-[20]oxa[13]thia[1,14]diazatetracyclo[14.7.2.0^3,6.0^19,24]pentacosa [16,18,24]trien]-15′-one 13′,13′-dioxide] the figure was 46.2 nM.
